Test [1] deals with Aβ42 produced and secreted into the medium of human neuroblastoma SKNBE2 cells. Kind of test: Cellular αlisa assay in SKNBE2 cells, Aβ42. It counts as cell-based. The settings on record: Homo sapiens, SKNBE2, 18 h, SKNBE2 cells expressing hAPP695, incubated for 18 hours; read-out: Cellular αlisa assay in SKNBE2 cells Aβ42 pIC50 (converted). How it is done:
(§1) In two αlisa assays the levels of Aβtotal and Aβ42 produced and secreted into the medium of human neuroblastoma SKNBE2 cells are quantified. The assay is based on the human neuroblastoma SKNBE2 expressing the wild type Amyloid Precursor Protein (hAPP695). The compounds are diluted and added to these cells, incubated for 18 hours and then measurements of Aβ42 and Aβtotal are taken. Aβtotal and Aβ42 are measured by sandwich αlisa. αlisa is a sandwich assay using biotinylated antibody AbN/25 attached to streptavidin coated beads and antibody Ab4G8 or cAb42/26 conjugated acceptor beads for the detection of Aβtotal and Aβ42 respectively. In the presence of Aβtotal or Aβ42, the beads come into close proximity. The excitation of the Donor beads provokes the release of singlet oxygen molecules that triggers a cascade of energy transfer in the Acceptor beads, resulting in light emission. Light emission is measured after 1 hour incubation (excitation at […] and emission at 615 nm).
(§2) A best-fit curve is fitted by a minimum sum of squares method to the plot of % Controlmin versus compound concentration.
(§3) LC=Median of the low control values
(§4) =Low control: cells preincubated without compound, without biotinylated Ab in the αlisa
(§5) HC=Median of the High control values
(§6) =High Control: cells preincubated without compound % Effect=100−[(sample−LC)/(HC−LC)*100] % Control=(sample/HC)*100% % Controlmin=(sample−LC)/(HC−LC)*100

For test [2], the system named is Aβtotal produced and secreted into the medium of human neuroblastoma SKNBE2 cells. Kind of test: Cellular αlisa assay in SKNBE2 cells, Aβtotal. The format is cell-based. Particulars: Homo sapiens, SKNBE2, 18 h, SKNBE2 cells expressing hAPP695, incubated for 18 hours; read-out: Cellular αlisa assay in SKNBE2 cells Aβtotal pIC50 (converted). The protocol:
as §1, §2, §3, §4, §5, §6

Test [3] concerns brain levels of soluble Aβ42. Kind of test: In vivo efficacy: brain Aβ42 lowering (ELISA). On the set-up: species or system mouse. The settings on record: 30 mpk. An excerpt:
(§7) To determine whether acute administration of an Aβ42 peptide lowering agent would reduce Aβ peptide levels in vivo, non-transgenic rodents, e.g. mice or rats were used. Animals treated with the Aβ peptide lowering agent were examined and compared to those untreated or treated with vehicle and brain levels of soluble Aβ42 and total Aβ were quantitated by standard techniques, for example, using ELISA. Treatment periods varied from hours (h) to days and were adjusted based on the results of the Aβ42 lowering once a time course of onset of effect could be established.
(§8) A typical protocol for measuring Aβ42 lowering in vivo is shown but it is only one of many variations that could be used to optimize the levels of detectable Aβ. For example, Aβpeptide lowering compounds were formulated in 20% hydroxypropyl β cyclodextrin. The Aβ peptide lowering agents were administered as a single oral dose (p.o.) or a single subcutaneous dose (s.c.) to overnight fasted animals. After a certain time, usually 2 or 4 h (as indicated in Table 19), the animals were sacrificed and Aβ42 levels were analysed.
(§9) Blood was collected by decapitation and exsanguinations in EDTA-treated collection tubes. Blood was centrifuged at 1900 g for 10 minutes (min) at 4° C. and the plasma recovered and flash frozen for later analysis. The brain was removed from the cranium and hindbrain. The cerebellum was removed and the left and right hemisphere were separated. The left hemisphere was stored at −18° C. for quantitative analysis of test compound levels. The right hemisphere was rinsed with phosphate-buffered saline (PBS) buffer and immediately frozen on dry ice and stored at −80° C. until homogenization for biochemical assays.
(§10) Mouse brains from non-transgenic animals were resuspended in 8 volumes of 0.4% DEA (diethylamine)/50 mM NaCl containing protease inhibitors (Roche-11873580001 or 04693159001) per gram of tissue, e.g. for 0.158 g brain, add 1.264 ml of 0.4% DEA. All samples were homogenized in the FastPrep-24 system (MP Biomedicals) using lysing matrix D (MPBio #6913-100) at 6 m/s for 20 seconds. Homogenates were centrifuged at 221.300×g for 50 min. The resulting high speed supernatants were then transferred to fresh eppendorf tubes. Nine parts of supernatant were neutralized with 1 part 0.5 M Tris-HCl pH 6.8 and used to quantify Aβtotal and Aβ42.
(§11) To quantify the amount of Aβtotal and Aβ42 in the soluble fraction of the brain homogenates, Enzyme-Linked-Immunosorbent-Assays were used. Briefly, the standards (a dilution of synthetic Aβ1-40 and Aβ1-42, Bachem) were prepared in 1.5 ml Eppendorf tube in Ultraculture, with final concentrations ranging from 10000 to 0.3 pg/ml. The samples and standards were co-incubated with HRPO-labelled N-terminal antibody for Aβ42 detection and with the biotinylated mid-domain antibody 4G8 for Aβtotal detection. 50 μl of conjugate/sample or conjugate/standards mixtures were then added to the antibody-coated plate (the capture antibodies selectively recognize the C-terminal end of Aβ42, antibody JRF/cAβ42/26, for Aβ42 detection and the N-terminus of Aβ, antibody JRF/rAβ/2, for Aβtotal detection). The plate was allowed to incubate overnight at 4° C. in order to allow formation of the antibody-amyloid complex. Following this incubation and subsequent wash steps the ELISA for Aβ42 quantification was finished by addition of Quanta Blu fluorogenic peroxidase substrate according to the manufacturer's instructions (Pierce Corp., Rockford, Il). A reading was performed after 10 to 15 min (excitation 320 nm/emission 420 nm).
In this model at least 20% Aβ42 lowering compared to untreated animals would be advantageous.

In test [4] the test system is brain levels of total Aβ. Kind of test: In vivo efficacy: brain Aβtotal lowering (ELISA). On the set-up: species or system mouse. Particulars: 30 mpk.
Description: as §7, §8, §9, §10, §11
For Aβtotal detection, a Streptavidine-Peroxidase-Conjugate was added, followed 60 min later by an additional wash step and addition of Quanta Blu fluorogenic peroxidase substrate according to the manufacturer's instructions (Pierce Corp., Rockford, Il). A reading was performed after 10 to 15 min (excitation 320 nm/emission 420 nm).
(In general: An ELISA detects its analyte on a solid surface through an enzyme-linked reagent.)

Test [5] deals with T1, recombinant BACE1 protein (Homo sapiens, UniProt P56817).
T1 construct: recombinant BACE1 protein in a final concentration of 1 μg/ml
Kind of test: Biochemical FRET based assay. The settings on record: recombinant BACE1 1 μg/ml, 10 μm substrate, 120 minutes, room temperature, pH 5.0; read-out: Biochemical FRET based assay pIC50 (converted).
Description: This assay is a Fluorescence Resonance Energy Transfer Assay (FRET) based assay. The substrate for this assay is an APP derived 13 amino acids peptide that contains the ‘Swedish’ Lys-Met/Asn-Leu mutation of the amyloid precursor protein (APP) β-secretase cleavage site. This substrate also contains two fluorophores: (7-methoxycoumarin-4-yl) acetic acid (Mca) is a fluorescent donor with excitation wavelength at 320 nm and emission at 405 nm and 2,4-Dinitrophenyl (Dnp) is a proprietary quencher acceptor. […] Upon cleavage by BACE1, the fluorophore Mca is separated from the quenching group Dnp, restoring the full fluorescence yield of the donor. The increase in fluorescence is linearly related to the rate of proteolysis (Koike H et al. J. Biochem. 1999, 126, 235-242).
Briefly in a 384-well format recombinant BACE1 protein in a final concentration of 1 μg/ml is incubated for 120 minutes at room temperature with 10 μm substrate in incubation buffer (40 mM Citrate buffer pH 5.0, 0.04% PEG, 4% DMSO) in the absence or presence of compound. Next the amount of proteolysis is directly measured by fluorescence measurement at T=0 and T=120 (excitation at 320 nm and emission at 405 nm).
as §3
=Low control: Reaction without enzyme
as §5
=High Control: Reaction with enzyme % Effect=100−[(sample−LC)/(HC−LC)*100] % Control=(sample/HC)*100% % Controlmin=(sample−LC)/(HC−LC)*100

T1 sequence (P56817 46-501): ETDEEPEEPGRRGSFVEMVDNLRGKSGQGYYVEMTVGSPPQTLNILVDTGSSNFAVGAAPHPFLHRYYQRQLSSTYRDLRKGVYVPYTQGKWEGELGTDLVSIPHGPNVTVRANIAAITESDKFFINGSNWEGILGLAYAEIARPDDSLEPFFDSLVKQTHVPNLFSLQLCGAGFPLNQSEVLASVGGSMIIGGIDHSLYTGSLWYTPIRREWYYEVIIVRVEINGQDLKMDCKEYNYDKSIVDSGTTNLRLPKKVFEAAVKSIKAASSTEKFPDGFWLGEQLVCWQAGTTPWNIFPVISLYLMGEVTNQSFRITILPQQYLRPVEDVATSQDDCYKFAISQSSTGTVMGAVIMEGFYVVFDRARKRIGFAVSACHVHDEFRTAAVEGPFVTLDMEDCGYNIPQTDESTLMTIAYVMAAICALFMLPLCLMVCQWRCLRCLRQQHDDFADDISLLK

With `C[C@@]1(c2cc(NC(=O)c3ccc(C#N)cn3)ccc2F)Cn2ccnc2C(N)=N1` [Compound 18], the IC50 in test [1] is 6.31 nM; in test [2], 5.62 nM. The “Aβ42 (% Ctrl)_Mean” value in test [3] (p.o., 2 h after administration) is 38 % Ctrl. In addition, in test [4] (p.o., 2 h after administration), the “Aβtotal (% Ctrl)_Mean” value came to 52 % Ctrl.
As to `COc1cnc(C(=O)Nc2ccc(F)c(C3(C)Cn4ccnc4C(N)=N3)c2)cn1` (single isomer, unassigned) [Compound 9], the IC50 in test [5] was 148 nM; in test [1], 35.5 nM; in test [2] it was 31.6 nM. Also, the “Aβ42 (% Ctrl)_Mean” value in test [3] (p.o., 2 h after administration) came to 40 % Ctrl; in test [3] (s.c., 2 h after administration) it was 57 % Ctrl. Further, the “Aβtotal (% Ctrl)_Mean” value in test [4] (p.o., 2 h after administration) was found to be 63 % Ctrl; in test [4] (s.c., 2 h after administration) it was 49 % Ctrl.
For the compound `C[C@@]1(c2cc(NC(=O)c3ccc(F)cn3)ccc2F)Cn2cc(C(F)(F)F)nc2C(N)=N1` [Compound 24], the IC50 was 132 nM in test [5], 38.9 nM in test [1] and 33.9 nM in test [2]. In test [3] (s.c., 4 h after administration), the “Aβ42 (% Ctrl)_Mean” value was 50 % Ctrl. In addition, the “Aβtotal (% Ctrl)_Mean” value in test [4] (s.c., 4 h after administration) amounted to 67 % Ctrl.
As to `CC1(c2cc(NC(=O)c3ccc(F)cn3)ccc2F)Cn2ccnc2C(N)=N1` (single isomer, unassigned) [Compound 10], the IC50 in test [5] is 214 nM; in test [1], 58.9 nM; in test [2], 50.1 nM. Further, the “Aβ42 (% Ctrl)_Mean” value in test [3] (s.c., 2 h after administration) is reported as 45 % Ctrl. In addition, the “Aβtotal (% Ctrl)_Mean” value in test [4] (s.c., 2 h after administration) came to 53 % Ctrl.
For `C[C@@]1(c2cc(NC(=O)c3ncc(C#N)cc3Cl)ccc2F)Cn2ccnc2C(N)=N1` [Compound 21], in that order: 49 nM, 9.33 nM, 9.55 nM, 33 % Ctrl and 7 % Ctrl.

The record behind these values is US9840507B2, “5,6-dihydro-imidazo[1,2-a]pyrazin-8-ylamine derivatives useful as inhibitors of beta-secretase (BACE)” (Janssen Pharmaceutica, NV, priority 2010, dated 2017).
